# Where “and” joins values, the source holds several entries; their conditions need not be identical. Identical values can stand only once. Like-named read-outs stand apart in the source and are kept apart here.
# Key:
# 5-HT2A receptor = target: T1, 5-HT2A receptor (Homo sapiens, UniProt P28223); test: 5-HT2A Gq dissociation BRET functional assay; assay type: cell-based; details: for 5-HT2A BRET Eff %: normalized to % 5-HT stimulation
# T1 construct: expressed in transfected cells; host or cells: HEK293T
# T1 sequence (P28223 whole entry): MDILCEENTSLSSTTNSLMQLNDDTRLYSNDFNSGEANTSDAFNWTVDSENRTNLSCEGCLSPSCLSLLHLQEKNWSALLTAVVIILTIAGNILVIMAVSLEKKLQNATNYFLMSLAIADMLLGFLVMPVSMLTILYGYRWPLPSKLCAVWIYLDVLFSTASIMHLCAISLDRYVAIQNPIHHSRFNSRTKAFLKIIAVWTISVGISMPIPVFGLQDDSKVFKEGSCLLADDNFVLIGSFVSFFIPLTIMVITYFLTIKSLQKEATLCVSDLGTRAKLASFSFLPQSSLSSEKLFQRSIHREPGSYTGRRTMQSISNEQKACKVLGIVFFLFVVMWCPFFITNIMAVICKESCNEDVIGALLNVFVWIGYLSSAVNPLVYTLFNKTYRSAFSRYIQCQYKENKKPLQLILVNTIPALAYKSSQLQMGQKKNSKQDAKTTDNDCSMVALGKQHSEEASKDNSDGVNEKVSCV
# 5-HT2B receptor = target: T2, 5-HT2B receptor (Homo sapiens, UniProt P41595); test: 5-HT2B Gq dissociation BRET functional assay; assay type: cell-based; details: for 5-HT2B BRET Eff %: normalized to % 5-HT stimulation
# T2 construct: expressed in transfected cells; host or cells: HEK293T
# T2 sequence (P41595 whole entry): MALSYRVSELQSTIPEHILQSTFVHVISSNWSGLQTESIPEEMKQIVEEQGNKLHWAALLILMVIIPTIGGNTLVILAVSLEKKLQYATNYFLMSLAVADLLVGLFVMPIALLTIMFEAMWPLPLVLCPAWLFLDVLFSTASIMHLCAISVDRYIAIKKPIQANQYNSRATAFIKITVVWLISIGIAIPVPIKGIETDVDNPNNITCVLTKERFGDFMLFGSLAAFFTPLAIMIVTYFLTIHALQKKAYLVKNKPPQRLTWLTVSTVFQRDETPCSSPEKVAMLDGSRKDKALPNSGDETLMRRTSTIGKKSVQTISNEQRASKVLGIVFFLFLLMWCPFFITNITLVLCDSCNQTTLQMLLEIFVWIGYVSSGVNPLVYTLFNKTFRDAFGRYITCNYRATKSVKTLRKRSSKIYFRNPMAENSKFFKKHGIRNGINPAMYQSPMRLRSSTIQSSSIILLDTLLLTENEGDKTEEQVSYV
# 5-HT1B = 5-HT1B (Homo sapiens, UniProt P28222); test: 5-HT receptor activity panel (Table 3); assay type: cell-based; details: Table 3
# 5-HT1B, sequence (P28222 whole entry, species assumed): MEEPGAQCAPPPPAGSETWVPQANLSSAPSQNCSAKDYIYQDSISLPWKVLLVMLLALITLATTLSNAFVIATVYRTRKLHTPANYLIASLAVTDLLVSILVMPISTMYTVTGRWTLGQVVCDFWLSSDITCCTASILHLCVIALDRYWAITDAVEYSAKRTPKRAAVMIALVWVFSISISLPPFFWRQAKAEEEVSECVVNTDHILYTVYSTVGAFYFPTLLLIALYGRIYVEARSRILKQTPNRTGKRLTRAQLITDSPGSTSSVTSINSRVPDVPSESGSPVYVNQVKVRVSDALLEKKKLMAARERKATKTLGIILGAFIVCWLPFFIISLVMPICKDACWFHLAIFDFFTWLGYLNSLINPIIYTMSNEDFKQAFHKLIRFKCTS
# 5-HT1E = 5-HT1E (Homo sapiens, UniProt P28566); test: 5-HT receptor activity panel (Table 3); assay type: cell-based
# 5-HT1E, sequence (P28566 whole entry, species assumed): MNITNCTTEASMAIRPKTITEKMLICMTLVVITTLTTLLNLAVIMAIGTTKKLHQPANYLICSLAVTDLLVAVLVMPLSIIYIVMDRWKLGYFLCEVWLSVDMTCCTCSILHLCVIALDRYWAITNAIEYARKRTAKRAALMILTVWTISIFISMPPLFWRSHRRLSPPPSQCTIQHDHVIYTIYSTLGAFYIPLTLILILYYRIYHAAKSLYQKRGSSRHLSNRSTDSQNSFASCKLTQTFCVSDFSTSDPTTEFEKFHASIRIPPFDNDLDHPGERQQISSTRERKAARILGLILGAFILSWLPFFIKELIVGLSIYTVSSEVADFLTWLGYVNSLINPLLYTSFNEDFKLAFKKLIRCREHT
# 5-HT1F = target: T3, 5-HT1F (Homo sapiens, UniProt P30939); test: 5-HT receptor activity panel (Table 3); assay type: cell-based
# T3 sequence (P30939 1-366): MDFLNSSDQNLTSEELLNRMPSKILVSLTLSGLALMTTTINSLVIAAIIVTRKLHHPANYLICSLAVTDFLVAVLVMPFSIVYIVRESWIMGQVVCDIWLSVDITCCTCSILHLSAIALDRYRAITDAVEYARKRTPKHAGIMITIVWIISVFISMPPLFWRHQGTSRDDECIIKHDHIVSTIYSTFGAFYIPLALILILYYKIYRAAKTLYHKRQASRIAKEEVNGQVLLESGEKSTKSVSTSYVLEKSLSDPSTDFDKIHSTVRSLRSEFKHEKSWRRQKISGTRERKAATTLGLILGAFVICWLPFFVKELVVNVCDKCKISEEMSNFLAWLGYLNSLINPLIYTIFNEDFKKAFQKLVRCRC
# 5-HT4 = 5-HT4 (Homo sapiens, UniProt Q13639); test: 5-HT receptor activity panel (Table 3); assay type: cell-based; details: Table 3
# 5-HT4, sequence (Q13639 whole entry, species assumed): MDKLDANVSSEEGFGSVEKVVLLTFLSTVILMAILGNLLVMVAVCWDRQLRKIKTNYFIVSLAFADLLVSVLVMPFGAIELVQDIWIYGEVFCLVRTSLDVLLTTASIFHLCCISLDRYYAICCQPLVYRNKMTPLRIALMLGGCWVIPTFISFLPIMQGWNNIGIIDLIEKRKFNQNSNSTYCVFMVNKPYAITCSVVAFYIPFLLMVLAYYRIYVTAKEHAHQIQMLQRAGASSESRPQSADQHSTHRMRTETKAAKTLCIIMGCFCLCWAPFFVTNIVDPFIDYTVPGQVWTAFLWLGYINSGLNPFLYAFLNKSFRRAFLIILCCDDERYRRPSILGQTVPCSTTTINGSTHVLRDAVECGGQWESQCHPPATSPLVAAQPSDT
# 5-HT7 = 5-HT7 (Homo sapiens, UniProt P34969); test: 5-HT receptor activity panel (Table 3); assay type: cell-based
# 5-HT7, sequence (P34969 whole entry, species assumed): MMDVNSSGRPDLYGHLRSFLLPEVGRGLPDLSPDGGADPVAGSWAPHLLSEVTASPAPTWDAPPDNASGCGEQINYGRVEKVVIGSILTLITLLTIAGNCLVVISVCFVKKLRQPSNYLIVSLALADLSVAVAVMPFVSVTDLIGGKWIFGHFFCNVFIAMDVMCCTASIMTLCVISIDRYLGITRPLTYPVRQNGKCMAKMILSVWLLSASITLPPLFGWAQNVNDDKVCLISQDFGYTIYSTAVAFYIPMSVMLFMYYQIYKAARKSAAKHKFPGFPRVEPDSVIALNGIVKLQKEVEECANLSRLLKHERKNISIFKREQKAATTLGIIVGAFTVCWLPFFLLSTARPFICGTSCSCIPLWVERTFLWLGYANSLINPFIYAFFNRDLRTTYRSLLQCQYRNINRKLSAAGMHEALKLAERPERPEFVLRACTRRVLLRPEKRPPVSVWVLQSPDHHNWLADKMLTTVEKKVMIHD
# [1] = target: T4, human ether-a-go-go-related gene (hERG) K+ channel (Homo sapiens, UniProt Q12809); test: Eurofins hERG Qube APC Assay; assay type: cell-based; details: for IC50 (hERG)/EC50 (5-HT2A) ratio: Table 4
# T4 construct: Eurofins
# T4 sequence (Q12809 whole entry): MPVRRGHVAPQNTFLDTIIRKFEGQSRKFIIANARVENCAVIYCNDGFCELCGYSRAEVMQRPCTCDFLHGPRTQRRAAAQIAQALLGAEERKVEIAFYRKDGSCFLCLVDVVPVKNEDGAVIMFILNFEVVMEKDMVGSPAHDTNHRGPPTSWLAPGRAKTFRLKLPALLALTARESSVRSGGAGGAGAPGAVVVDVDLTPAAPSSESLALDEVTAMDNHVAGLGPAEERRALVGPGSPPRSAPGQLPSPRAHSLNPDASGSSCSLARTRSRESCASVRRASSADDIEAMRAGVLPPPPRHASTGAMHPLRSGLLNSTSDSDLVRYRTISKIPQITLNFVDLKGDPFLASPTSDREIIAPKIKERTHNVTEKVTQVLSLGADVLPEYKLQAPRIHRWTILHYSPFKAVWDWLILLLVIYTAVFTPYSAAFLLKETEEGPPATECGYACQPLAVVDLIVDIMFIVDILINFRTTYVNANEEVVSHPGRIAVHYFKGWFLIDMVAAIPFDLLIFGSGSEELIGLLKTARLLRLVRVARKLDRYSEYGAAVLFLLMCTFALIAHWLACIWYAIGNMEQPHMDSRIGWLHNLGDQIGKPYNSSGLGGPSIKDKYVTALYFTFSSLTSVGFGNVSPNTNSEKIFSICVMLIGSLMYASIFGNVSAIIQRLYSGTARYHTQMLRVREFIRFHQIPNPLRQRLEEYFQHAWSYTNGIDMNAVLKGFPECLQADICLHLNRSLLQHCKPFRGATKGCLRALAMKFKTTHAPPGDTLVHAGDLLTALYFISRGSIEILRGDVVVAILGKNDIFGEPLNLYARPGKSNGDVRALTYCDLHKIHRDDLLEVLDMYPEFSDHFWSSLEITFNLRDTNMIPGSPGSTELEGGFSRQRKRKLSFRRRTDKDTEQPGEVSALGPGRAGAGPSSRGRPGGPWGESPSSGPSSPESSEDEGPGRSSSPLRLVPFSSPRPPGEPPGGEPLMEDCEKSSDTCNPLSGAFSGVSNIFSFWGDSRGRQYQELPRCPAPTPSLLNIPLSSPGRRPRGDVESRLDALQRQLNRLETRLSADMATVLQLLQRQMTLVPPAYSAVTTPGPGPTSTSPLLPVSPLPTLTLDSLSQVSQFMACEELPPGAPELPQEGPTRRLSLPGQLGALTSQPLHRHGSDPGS
# Source text: As used herein and unless otherwise specified, the term “hERG risk” refers to the risk of a compound potentially inhibiting the human ether-a-go-go-related gene (hERG) K^+ channel, thereby leading to QT prolongation.
# As a result of, many compounds disclosed in Table 1 and Table 2 were screened for the potential of “hERG risk” using pharmacological assays (e.g. Eurofins™ hERG Qube APC Assay). […].
# [2] = in vitro hepatocyte clearance, human; assay type: in vitro ADME; details: Human hepatocytes; for hepatocyte CLint: read-out: In vitro Clint (μL/min/10^6 cells); for half-life: read-out: In vitro T1/2; for CLint scaled: read-out: Scale-up Clint
# Experimental: (§1) Additional experimentation was performed on compound 109. Table 6 summarizes, among other things, the anticipated hepatic clearance of compound 109 in various species, as specified in Table 6 and as determined by calculating the in vitro hepatocyte clearance over time and scaling such rate with such species' hepatocyte count and the anticipated liver blood flow rate in such species.
# hepatocyte [3] = test: in vitro hepatocyte clearance, human; assay type: in vitro ADME; details: Human
# Experimental: as §1
# hepatocyte [4] = test: in vitro hepatocyte clearance, monkey; assay type: in vitro ADME; details: Monkey
# Experimental: as §1
# [5] = in vitro hepatocyte clearance, rat; assay type: in vitro ADME; details: for hepatocyte CLint / half-life: Rat hepatocytes; for hepatocyte CLint: read-out: In vitro Clint (μL/min/10^6 cells); for half-life: read-out: In vitro T1/2; for CLint scaled: rat, hepatocytes, read-out: Scale-up Clint
# Experimental: as §1
# hepatocyte [6] = test: in vitro hepatocyte clearance, rat; assay type: in vitro ADME; details: Rat
# Experimental: as §1
# [7] = in vitro hepatocyte clearance, mouse; assay type: in vitro ADME; details: Mouse hepatocytes; for hepatocyte CLint: read-out: In vitro Clint (μL/min/10^6 cells); for half-life: read-out: In vitro T1/2; for CLint scaled: read-out: Scale-up Clint
# Experimental: as §1
# hepatocyte [8] = test: in vitro hepatocyte clearance, mouse; assay type: in vitro ADME; details: Mouse
# Experimental: as §1
# [9] = plasma and brain PK in mice; assay type: in vivo; details: mouse; for Kp: brain; for clearance: read-out: Cltot (converted); for half-life: read-out: T1/2 Vz (converted); for Vd: read-out: Vz
# Source text: (§2) Table 7a and Table 7b summarize, among other things, the observed plasma and Brain P K properties in animals, and the observed plasma and Brain P K properties predicted in humans, for compound 109 in Table 7a and compound 93 for Table 7b: […]
# [10] = plasma and brain PK in rat; assay type: in vivo; details: for Kp: brain; for clearance: read-out: Cltot (converted); for half-life: read-out: T1/2 Vz (converted); for Vd: read-out: Vz
# Source text: as §2
# plasma PK in dog = assay type: in vivo; details: for clearance / half-life / Vd: dog; for clearance: read-out: Cltot (converted); for half-life: read-out: T1/2 Vz (converted); for Vd: read-out: Vz
# Source text: as §2
# [11] = plasma and brain PK predicted in humans; details: Human (predicted); for Kp: brain; for clearance: read-out: Cltot (converted); for half-life: read-out: T1/2 Vz (converted); for Vd: read-out: Vz
# Source text: as §2
# mice = test: head-twitch response (HTR) in mice; assay type: in vivo, male C57BL/6J mice; details: for ED50: Mus musculus
# Experimental: As used herein and unless otherwise specified, the term “HTR” refers to head-twitch response, which is a measurement of 5-HT2A activation in vivo.
# As used herein and unless otherwise specified, the term “mice” refers to male C57BL/6J mice (6-8 weeks old).
# HTR was assessed using a head-mounted neodymium magnet and a magnetometer detection coil, as described in Halberstadt et al., Psychopharmacology (Berl.), 2013, 227(4): 727-739. Table 8 below summarizes the ED50 in head twitch in mice of various compounds disclosed herein as compared to psilocybin. FIG. 3 illustrates the HTR relative to dose for compound 109: […]
# [12] = read-out: Brain Plasma AUC Ratio
structure (smiles),measurement,setting,value
COc1cc(C(F)(F)F)ccc1CCNCc1ccccc1O [Cpd #93],EC50,"5-HT2A receptor; 5-HT2A BRET EC50 (nM), Table 2, at least three replicate trials",0.7 nM and 1.17 nM
same,EC50,"5-HT2A receptor; 5-HT2A EC50, nM, Table 3 panel",0.3 nM
same,EC50,"5-HT2A receptor; EC50 BRET 2A, Table 4, unit inferred",1.2 nM
same,5-HT2A BRET Eff %,5-HT2A receptor; Table 2,96% and 91%
same,"5-HT2A Eff, %",5-HT2A receptor; Table 3 panel,96%
same,EC50,"5-HT2B receptor; 5-HT2B BRET EC50 (nM), Table 2, at least three replicate trials",62.3 nM and 96.2 nM
same,EC50,"5-HT2B receptor; 5-HT2B EC50, nM, Table 3 panel",64.2 nM
same,5-HT2B BRET Eff %,5-HT2B receptor; Table 2,53% and 52%
same,"5-HT2B Eff, %",5-HT2B receptor; Table 3 panel,50%
same,"5-HT1B EC50, nM",5-HT1B,Not active
same,EC50,5-HT1E,70100 nM
same,"5-HT1E Eff, %",5-HT1E; Table 3,211%
same,EC50,5-HT1F,8090 nM
same,"5-HT1F Eff, %",5-HT1F; Table 3,69%
same,"5-HT4 EC50, nM",5-HT4,Not active
same,EC50,5-HT7,0.5 nM
same,"5-HT7 Eff, %",5-HT7; Table 3,−12%
same,IC50,[1],620 nM
same,IC50 (hERG)/EC50 (5-HT2A) ratio,[1],517
same,hepatocyte CLint,[2],54.8 µL/min/1e6 cells
same,half-life,[2],25.3 min
same,CLint scaled,[2],140 mL/min/kg
same,Predicted hepatic CL,hepatocyte [3],18.03 mL/min/kg
same,Predicted hepatic CL,hepatocyte [4],42.50 mL/min/kg
same,hepatocyte CLint,[5],< 614 µL/min/1e6 cells
same,half-life,[5],> 2.26 min
same,CLint scaled,[5],< 2870 mL/min/kg
same,Predicted hepatic CL,hepatocyte [6],<54.16 mL/min/kg
same,hepatocyte CLint,[7],< 614 µL/min/1e6 cells
same,half-life,[7],> 2.26 min
same,CLint scaled,[7],< 7250 mL/min/kg
same,Predicted hepatic CL,hepatocyte [8],<88.90 mL/min/kg
same,Kp,[9]; read-out: Brain/plasma Ratio,15.6
same,clearance,[9]; plasma,197 mL/min/kg
same,half-life,[9]; plasma,54 min
same,Vd,[9]; plasma,15.1 L/kg
same,Kp,"[10]; rat, read-out: Brain/plasma Ratio",19.6
same,clearance,"[10]; rat, plasma",127 mL/min/kg
same,half-life,"[10]; rat, plasma",82.8 min
same,Vd,"[10]; rat, plasma",15.2 L/kg
same,clearance,plasma PK in dog,53.1 mL/min/kg
same,half-life,plasma PK in dog,99.6 min
same,Vd,plasma PK in dog,7.7 L/kg
same,Kp,[11]; read-out: Brain/plasma Ratio,9.55
same,clearance,[11]; plasma,37.9 mL/min/kg
same,half-life,[11]; plasma,117 min
same,Vd,[11]; plasma,6.39 L/kg
same,ED50,mice; mice,0.28 mg/kg
CSc1ccccc1CNCCc1ccc(C#N)cc1O [Cpd #109],EC50,"5-HT2A receptor; Table 2, at least three replicate trials, read-out: 5-HT2A BRET EC50",5.1 nM
same,5-HT2A BRET Eff %,5-HT2A receptor; Table 2,102%
same,"5-HT2A Eff, %",5-HT2A receptor; Table 3 panel,99%
same,EC50,"5-HT2A receptor; Table 3 panel, read-out: 5-HT2A EC50",4.8 nM
same,EC50,"5-HT2A receptor; Table 4, unit inferred, read-out: EC50 BRET 2A",4.8 nM
same,EC50,"5-HT2B receptor; Table 2, at least three replicate trials, read-out: 5-HT2B BRET EC50",3140 nM
same,5-HT2B BRET Eff %,5-HT2B receptor; Table 2,95%
same,"5-HT2B Eff, %",5-HT2B receptor; Table 3 panel,84%
same,EC50,"5-HT2B receptor; Table 3 panel, read-out: 5-HT2B EC50",3090 nM
same,"5-HT1B EC50, nM",5-HT1B,Not active
same,"5-HT1E Eff, %",5-HT1E; Table 3,12%
same,EC50,"5-HT1E; Table 3, read-out: 5-HT1E EC50",814 nM
same,"5-HT1F Eff, %",5-HT1F; Table 3,12%
same,EC50,"5-HT1F; Table 3, read-out: 5-HT1F EC50",582 nM
same,"5-HT4 Eff, %",5-HT4,−3%
same,EC50,5-HT4; read-out: 5-HT4 EC50,0.2 nM
same,"5-HT7 EC50, nM",5-HT7; Table 3,Not active
same,IC50,[1],2900 nM
same,IC50 (hERG)/EC50 (5-HT2A) ratio,[1],604
same,hepatocyte CLint,[2],609 µL/min/1e6 cells
same,half-life,[2],2.28 min
same,CLint scaled,[2],1550 mL/min/kg
same,Hepatic Extraction Ratio (E),hepatocyte [3],0.99
same,Predicted hepatic CL,hepatocyte [3],20.43 mL/min/kg
same,Hepatic Extraction Ratio (E),hepatocyte [4],0.98
same,Predicted hepatic CL,hepatocyte [4],42.57 mL/min/kg
same,hepatocyte CLint,[5],234 µL/min/1e6 cells
same,half-life,[5],5.93 min
same,CLint scaled,[5],1090 mL/min/kg
same,Hepatic Extraction Ratio (E),hepatocyte [6],0.95
same,Predicted hepatic CL,hepatocyte [6],52.55 mL/min/kg
same,hepatocyte CLint,[7],> 614 µL/min/1e6 cells
same,half-life,[7],< 2.26 min
same,CLint scaled,[7],> 7250 mL/min/kg
same,Hepatic Extraction Ratio (E),hepatocyte [8],>0.99
same,Predicted hepatic CL,hepatocyte [8],>88.90 mL/min/kg
same,Kp,[9]; [12],8.39
same,bioavailability,"[9]; plasma, IM, read-out: IM f (%)",144%
same,clearance,[9]; plasma,286 mL/min/kg
same,half-life,[9]; plasma,36 min
same,Vd,[9]; plasma,14 L/kg
same,plasma t1/2,[10]; healthy rat subjects (text b114),less than an hour
same,bioavailability,"[10]; plasma, rat, IM, read-out: IM f (%)",92.8%
same,Kp,"[10]; rat, read-out: Brain Plasma AUC Ratio",2.18
same,clearance,"[10]; rat, plasma",53.4 mL/min/kg
same,half-life,"[10]; rat, plasma",126 min
same,Vd,"[10]; rat, plasma",9.37 L/kg
same,bioavailability,"plasma PK in dog; Dog, IM, read-out: IM f (%)",120%
same,clearance,plasma PK in dog,39.7 mL/min/kg
same,half-life,plasma PK in dog,78 min
same,Vd,plasma PK in dog,4.33 L/kg
same,Kp,[11]; [12],2.14
same,bioavailability,"[11]; plasma, IM, read-out: IM f (%)",100%
same,clearance,[11]; plasma,16.2 mL/min/kg
same,half-life,[11]; plasma,120 min
same,Vd,[11]; plasma,2.78 L/kg
same,ED50,mice; mice,2.69 mg/kg
same,central hallucinogenic (or psychedelic) effects compared with psilocybin,mice; conclusion from Tables 6-8,less central hallucinogenic (or psychedelic) effects than traditional psychedelic compounds such as psilocybin
same,duration of psychedelic effect (HTR over time),"mice; mice, FIG. 4, different doses",less than 30 minutes

# Source: patent US20250074871A1, “PHENETHYLAMINES AND METHODS OF PREPARATION THEREOF” (priority 2022, published 2025)
